Results on one compound are retold here after PMC5266331, “Novel PARP-1 Inhibitor Scaffolds Disclosed by a Dynamic Structure-Based Pharmacophore Approach” (PLoS ONE, 2017).

SMILES strings stand for the structures.

As usually defined, the IC50 is the concentration that inhibits the measured activity by half.

This experiment deals with T1, PARP-1 (Homo sapiens, UniProt P09874).
T1 construct: gene PARP1
As to the kind of experiment: HT Universal Colorimetric PARP Assay kit (histone-coated wells, biotinylated poly(ADP-ribose)). In kind it is biochemical.

T1 sequence (P09874 2-1014): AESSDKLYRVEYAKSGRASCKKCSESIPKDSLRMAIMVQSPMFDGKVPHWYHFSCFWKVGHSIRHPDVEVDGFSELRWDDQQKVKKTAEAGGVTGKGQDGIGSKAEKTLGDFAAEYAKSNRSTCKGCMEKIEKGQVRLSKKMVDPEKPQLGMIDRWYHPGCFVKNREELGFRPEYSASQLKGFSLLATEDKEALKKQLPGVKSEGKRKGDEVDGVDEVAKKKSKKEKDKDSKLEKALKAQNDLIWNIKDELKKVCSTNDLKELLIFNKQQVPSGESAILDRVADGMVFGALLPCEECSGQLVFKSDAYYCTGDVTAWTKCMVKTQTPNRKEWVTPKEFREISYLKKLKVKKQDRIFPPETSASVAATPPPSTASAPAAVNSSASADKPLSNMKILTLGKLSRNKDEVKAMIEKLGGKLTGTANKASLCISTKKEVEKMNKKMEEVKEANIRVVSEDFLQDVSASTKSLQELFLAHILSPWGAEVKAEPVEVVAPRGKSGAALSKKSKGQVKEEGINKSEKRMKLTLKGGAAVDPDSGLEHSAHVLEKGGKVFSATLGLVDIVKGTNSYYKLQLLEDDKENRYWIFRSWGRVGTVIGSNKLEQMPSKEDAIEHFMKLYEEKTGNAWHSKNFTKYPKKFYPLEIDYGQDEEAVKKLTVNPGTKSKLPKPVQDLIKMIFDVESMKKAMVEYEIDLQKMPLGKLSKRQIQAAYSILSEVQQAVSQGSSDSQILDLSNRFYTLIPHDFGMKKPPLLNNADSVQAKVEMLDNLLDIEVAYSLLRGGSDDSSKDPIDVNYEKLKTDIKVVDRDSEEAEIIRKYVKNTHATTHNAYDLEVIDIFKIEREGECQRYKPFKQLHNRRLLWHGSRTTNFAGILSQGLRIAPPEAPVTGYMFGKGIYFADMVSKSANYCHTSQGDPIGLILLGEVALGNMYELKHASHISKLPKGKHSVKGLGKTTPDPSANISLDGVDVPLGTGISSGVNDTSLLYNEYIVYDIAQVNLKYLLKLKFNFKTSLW

The compound `COc1ccc2c(c1O)CNCC2c1ccc(O)c(O)c1` (stereo not shown) [NSC131753] registered an IC50 of 240 nM.
